Measurements: patent US11001563B2, “SSAO inhibitor” (SHANDONG DANHONG PHARMACEUTICAL CO., LTD., priority 2017, dated 2021)

Test: Compound pharmacokinetic evaluation in CD-1 mice
Format: in vivo, CD-1 mouse
Conditions: male, mouse, plasma
Procedure: Experimental purpose: compound pharmacokinetics were tested in CD-1 mice
CD-1 mouse (Male, 25-35 g, 6-9 weeks old, Shanghai Slack);
Experimental procedure: the pharmacological characteristics of the compound after intravenous and oral administration were tested in rodents by standard protocol, candidate compounds in the experiment was prepared into clear solutions to be administered to the mice in a single intravenous injection and orally. The intravenous and oral solvents were a certain proportion of an aqueous hydroxypropyl β-cyclodextrin solution or a physiological saline solution. Whole blood samples within 24 hours were collected, and centrifuged at 3000 g for 15 minutes, the supernatant was separated to obtain plasma samples, 4 times volume of acetonitrile solution containing internal standard was added to precipitate protein, centrifuging was conducted to take the supernatant, equal volume of water was added and centrifuging was conducted to take the supernatant to be sampled. The LC-MS/MS analysis method was used to quantitatively analyze the plasma concentration, and the pharmacokinetic parameters such as peak concentration, peak time, clearance rate, half-life, area under the drug concentration-time curve, and bioavailability were calculated.

- AUC (oral, read-out: Concentration Integral AUC): 6.49 µM·h
- Tmax (oral, read-out: Peak Time Tmax): 30 min
- bioavailability (po, read-out: Bioavailability F): 102%
- Cmax (single intravenous injection and oral, read-out: Peak Concentration Cmax): 3.53 µM
SMILES: Cl.Cn1nc(-c2ccc(OC/C(=C/F)CN)cc2)nc1C(F)F [WX126]
